According to ChEMBL document CHEMBL1149286 (J Med Chem, 2004):

Key:
[1] = biological target: 5-hydroxytryptamine receptor 7 (Homo sapiens, UniProt P34969); experiment: Agonist activity at 5-carboxamidotryptamine desensitized 5HT7 receptor assessed as relaxation of substance P-induced contraction of Dunkin-Hartley guinea pig ileum; type: functional, tissue-based; parameters: concentration or dose not given beside the values; settings: Cavia porcellus, target entry is the homologue from another species
[2] = biological target: 5-hydroxytryptamine receptor 7 (Rattus norvegicus, UniProt P32305); experiment: Displacement of [3H]LSD from rat recombinant 5HT7 receptor expressed in HEK293 cells; type: cell-based
[3] = biological target: 5-hydroxytryptamine receptor 2A (Rattus norvegicus, UniProt P14842); experiment: (§1) Displacement of [3H]ketanserin from 5HT2A receptor in Wistar Han rat cortex membranes; type: cell membranes, Membrane
[4] = biological target: 5-hydroxytryptamine receptor 2A (Rattus norvegicus) (UniProt P14842); experiment: as §1; type: cell membranes; settings: Membrane
[5] = biological target: T1, 5-hydroxytryptamine receptor 1A (Rattus norvegicus, UniProt P19327); experiment: Displacement of [3H]8-OH-DPAT from 5HT1A receptor in Wistar Han rat hippocampal membranes; type: cell membranes, Membrane
T1 sequence (P19327 whole entry): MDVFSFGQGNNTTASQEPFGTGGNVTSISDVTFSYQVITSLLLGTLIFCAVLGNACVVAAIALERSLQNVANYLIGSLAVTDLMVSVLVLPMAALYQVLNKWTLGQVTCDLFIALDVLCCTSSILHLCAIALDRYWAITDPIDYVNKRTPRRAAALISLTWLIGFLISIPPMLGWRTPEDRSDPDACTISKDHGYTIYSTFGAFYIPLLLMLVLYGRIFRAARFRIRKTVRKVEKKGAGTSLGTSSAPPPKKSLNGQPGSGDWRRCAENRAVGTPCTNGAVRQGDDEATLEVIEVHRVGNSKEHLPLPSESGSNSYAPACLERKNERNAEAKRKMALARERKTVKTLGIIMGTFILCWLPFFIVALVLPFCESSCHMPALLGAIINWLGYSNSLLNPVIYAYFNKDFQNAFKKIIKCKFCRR

[6] = organism: Rattus norvegicus; experiment: Selectivity for rat 5HT7 receptor over rat 5HT2A receptor
[7] = organism: Rattus norvegicus; experiment: Selectivity for rat 5HT7 receptor over rat 5HT1A receptor

Sequence of 5-hydroxytryptamine receptor 7 (Rattus norvegicus, UniProt P32305) (P32305 whole entry): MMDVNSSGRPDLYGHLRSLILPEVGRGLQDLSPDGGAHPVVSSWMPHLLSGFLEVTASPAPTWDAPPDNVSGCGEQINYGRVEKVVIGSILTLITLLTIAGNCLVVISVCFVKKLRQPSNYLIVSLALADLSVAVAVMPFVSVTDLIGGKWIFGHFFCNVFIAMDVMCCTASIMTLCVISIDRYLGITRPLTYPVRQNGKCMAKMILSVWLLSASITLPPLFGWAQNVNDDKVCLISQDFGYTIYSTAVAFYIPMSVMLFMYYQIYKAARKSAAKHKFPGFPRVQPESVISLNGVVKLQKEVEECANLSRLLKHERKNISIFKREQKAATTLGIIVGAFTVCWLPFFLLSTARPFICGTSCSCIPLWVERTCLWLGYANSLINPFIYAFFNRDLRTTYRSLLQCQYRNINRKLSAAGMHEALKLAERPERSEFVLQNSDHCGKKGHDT
Sequence of 5-hydroxytryptamine receptor 7 (Homo sapiens, UniProt P34969) (P34969 whole entry): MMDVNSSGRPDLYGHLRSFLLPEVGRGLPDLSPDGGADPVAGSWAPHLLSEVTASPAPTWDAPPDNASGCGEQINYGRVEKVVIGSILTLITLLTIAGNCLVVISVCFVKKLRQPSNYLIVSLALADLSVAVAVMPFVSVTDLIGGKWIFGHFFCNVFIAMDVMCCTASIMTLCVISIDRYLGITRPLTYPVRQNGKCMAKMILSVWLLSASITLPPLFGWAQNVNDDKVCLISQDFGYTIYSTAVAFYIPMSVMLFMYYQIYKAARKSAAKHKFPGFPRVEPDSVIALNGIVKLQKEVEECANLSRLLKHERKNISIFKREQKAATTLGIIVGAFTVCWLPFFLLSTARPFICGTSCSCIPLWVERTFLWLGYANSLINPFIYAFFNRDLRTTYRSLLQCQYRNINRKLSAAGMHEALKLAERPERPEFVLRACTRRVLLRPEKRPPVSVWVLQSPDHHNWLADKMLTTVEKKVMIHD
Sequence of 5-hydroxytryptamine receptor 2A (Rattus norvegicus) (P14842 whole entry): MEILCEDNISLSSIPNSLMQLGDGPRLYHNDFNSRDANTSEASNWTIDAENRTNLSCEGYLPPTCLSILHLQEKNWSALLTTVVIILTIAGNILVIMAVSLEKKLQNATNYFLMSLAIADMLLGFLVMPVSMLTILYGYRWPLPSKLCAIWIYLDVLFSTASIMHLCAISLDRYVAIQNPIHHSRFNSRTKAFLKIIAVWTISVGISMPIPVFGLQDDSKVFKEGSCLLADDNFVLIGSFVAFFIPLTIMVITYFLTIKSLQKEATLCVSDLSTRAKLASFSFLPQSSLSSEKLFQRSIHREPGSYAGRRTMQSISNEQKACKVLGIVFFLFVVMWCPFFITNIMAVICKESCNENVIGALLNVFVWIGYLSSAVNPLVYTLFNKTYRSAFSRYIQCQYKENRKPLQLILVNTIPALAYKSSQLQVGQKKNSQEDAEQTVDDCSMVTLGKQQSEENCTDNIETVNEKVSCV
Sequence of 5-hydroxytryptamine receptor 2A (P14842 whole entry): as above

Ki [2] | SMILES | Activity [1] | other results
– | NCCc1c[nH]c2ccc(C(N)=O)cc12 | 100% | –
> 1000 nM | COc1ccccc1N1CCN(CC(=O)NC2CCCc3c(OC)cccc32)CC1 (centres undefined) | – | –
– | NC(=O)c1ccccc1N1CCN(CCCCCC(=O)NC2CCCc3ccccc32)CC1 (centres undefined) | – | Ki [3]: > 4000 nM; Activity [4]: 9%
356 nM | O=C(CCCCCN1CCN(c2nc3ccccc3[nH]2)CC1)NC1CCCc2ccccc21 (centres undefined) | – | Ki [5]: 2600 nM
– | CSc1ccccc1N1CCN(CCCCCC(=O)NC2CCCc3ccccc32)CC1 (centres undefined) | 100% | Selectivity ratio [6]: > 1000; Selectivity ratio [7]: 200
– | COc1ccccc1N1CCN(CCCCCC(=O)NC2CCCc3ccccc32)CC1 (centres undefined) | 91% | –
– | Cc1ccccc1N1CCN(CCCCCC(=O)NC2CCCc3ccccc32)CC1 (centres undefined) | 98% | –
– | CC(=O)c1ccccc1N1CCN(CCCCCC(=O)NC2CCCc3ccccc32)CC1 (centres undefined) | 79% | –
– | CS(=O)(=O)c1ccccc1N1CCN(CCCCCC(=O)NC2CCCc3ccccc32)CC1 (centres undefined) | – | Ki [3]: > 4000 nM; Activity [4]: 38%
125 nM | O=C(CCCCCN1CCN(c2noc3ccccc23)CC1)NC1CCCc2ccccc21 (centres undefined) | – | Ki [5]: 3900 nM
820 nM | O=C(CCCCCN1CCN(c2nc3ccccc3o2)CC1)NC1CCCc2ccccc21 (centres undefined) | – | –
704 nM | COc1ccc2oc(N3CCN(CCCCCC(=O)NC4CCCc5ccccc54)CC3)nc2c1 (centres undefined) | – | –
– | O=C(CCCCCN1CCN(c2ccccc2O)CC1)NC1CCCc2ccccc21 (centres undefined) | 0% | –
